Results published in the NIST ThermoML archive (doi:10.1021/acs.jced.7b00520).
Numbers after ± are expanded uncertainties.

What was measured:
[1] = mn = molality of the nth substance listed, in mol/kg; conditions: 101.3 kPa, Liquid; for viscosity: Capillary tube (Ostwald / Ubbelohde) method; for mass density: Vibrating tube method
[2] = 101.3 kPa, Liquid, Capillary tube (Ostwald / Ubbelohde) method

[Cl-].[Cl-].[Mg+2] [magnesium chloride] + O
[1]
Conditions | mass density, m1 = 0.09999 [kg/m3] | mass density, m1 = 0.25 [kg/m3] | mass density, m1 = 0.5 [kg/m3] | mass density, m1 = 0.7499 [kg/m3] | mass density, m1 = 0.9999 [kg/m3] | viscosity, m1 = 0.0999 [mPa·s] | viscosity, m1 = 0.25 [mPa·s] | viscosity, m1 = 0.5 [mPa·s] | viscosity, m1 = 0.7499 [mPa·s] | viscosity, m1 = 0.9999 [mPa·s]
288.15 K | 1006.87 ± 8 | 1017.79 ± 8 | 1034.95 ± 8 | 1050.84 ± 8 | 1065.46 ± 8 | 1.21 ± 0.025 | 1.25 ± 0.025 | 1.355 ± 0.025 | 1.445 ± 0.025 | 1.534 ± 0.025
298.15 K | 1004.61 ± 8 | 1015.32 ± 8 | 1032.22 ± 8 | 1048.21 ± 8 | 1062.64 ± 8 | 0.934 ± 0.025 | 0.981 ± 0.025 | 1.072 ± 0.025 | 1.147 ± 0.025 | 1.214 ± 0.025
308.15 K | 1001.62 ± 8 | 1012.53 ± 8 | 1029.55 ± 8 | 1045.26 ± 8 | 1059.4 ± 8 | 0.751 ± 0.024 | 0.794 ± 0.024 | 0.862 ± 0.025 | 0.934 ± 0.025 | 1.01 ± 0.025
318.15 K | 997.848 ± 8 | 1008.92 ± 8 | 1026.01 ± 8 | 1041.4 ± 8 | 1055.25 ± 8 | 0.624 ± 0.024 | 0.659 ± 0.024 | 0.715 ± 0.024 | 0.762 ± 0.024 | 0.814 ± 0.024

O [water]
[2]
Conditions | viscosity [mPa·s]
288.15 K | 1.138 ± 0.025
298.15 K | 0.89 ± 0.025
308.15 K | 0.719 ± 0.024
318.15 K | 0.596 ± 0.024
